{"source": "PubChem BioAssay (NCI)", "note": "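Exposure lasted 48 hours, with cells grown in 96-well plates and compounds tested at five concentrations. TGI denotes the concentration required for complete inhibition of growth.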"}
{"system": "HCC-2998 colon", "assay": "NCI anticancer screen, dose series, 48 h", "units": {"TGI": "µM"}}
{"smiles": "C/C(=C\\COc1cc(O)c2c(c1)C(=O)c1cc(C)cc(O)c1C2=O)CCC1OC1(C)C", "note": "(stereo unspecified)", "TGI": "> 100"}
{"system": "KM12 colon", "assay": "NCI anticancer screen, dose series, 48 h", "units": {"TGI": "µM"}}
{"smiles": "Cc1ccc(O)c(-c2cc(-c3cccc(Br)c3)on2)c1", "TGI": 47.2}
{"smiles": "ClC(Cl)(Cl)C(N1CCN(c2ccccc2)CC1)N1CCN(c2ccccc2)CC1", "TGI": "> 100"}
{"smiles": "Cc1[nH]c(=O)[nH]c(=S)c1C(=O)NC1C2CCCCC2NC2CCCCC21", "note": "(stereo unspecified)", "TGI": 34.4}
{"smiles": "C/C(=C\\COc1cc(O)c2c(c1)C(=O)c1cc(C)cc(O)c1C2=O)CCC1OC1(C)C", "note": "(stereo unspecified)", "TGI": "> 100"}
{"system": "SF-295 CNS", "assay": "NCI anticancer screen, dose series, 48 h", "units": {"TGI": "µM"}}
{"smiles": "Cc1ccc(O)c(-c2cc(-c3cccc(Br)c3)on2)c1", "TGI": "> 100"}
{"smiles": "Cc1[nH]c(=O)[nH]c(=S)c1C(=O)NC1C2CCCCC2NC2CCCCC21", "note": "(stereo unspecified)", "TGI": 32.8}
{"smiles": "C/C(=C\\COc1cc(O)c2c(c1)C(=O)c1cc(C)cc(O)c1C2=O)CCC1OC1(C)C", "note": "(stereo unspecified)", "TGI": "> 100"}
{"system": "EKVX NSCLC", "assay": "NCI anticancer screen, dose series, 48 h", "units": {"TGI": "µM"}}
{"smiles": "Cc1ccc(O)c(-c2cc(-c3cccc(Br)c3)on2)c1", "TGI": "> 100"}
{"smiles": "ClC(Cl)(Cl)C(N1CCN(c2ccccc2)CC1)N1CCN(c2ccccc2)CC1", "TGI": "> 100"}
{"smiles": "O=c1c(Cc2c(O)ccc3ccccc23)nnc2sc(-c3nn4c(=O)c(Cc5c(O)ccc6ccccc56)nnc4s3)nn12", "TGI": "> 100"}
{"smiles": "C/C(=C\\COc1cc(O)c2c(c1)C(=O)c1cc(C)cc(O)c1C2=O)CCC1OC1(C)C", "note": "(stereo unspecified)", "TGI": "> 100"}
{"system": "RXF 393 renal", "assay": "NCI anticancer screen, dose series, 48 h", "units": {"TGI": "µM"}}
{"smiles": "Cc1ccc(O)c(-c2cc(-c3cccc(Br)c3)on2)c1", "TGI": 35.7}
{"smiles": "ClC(Cl)(Cl)C(N1CCN(c2ccccc2)CC1)N1CCN(c2ccccc2)CC1", "TGI": "> 100"}
{"smiles": "O=c1c(Cc2c(O)ccc3ccccc23)nnc2sc(-c3nn4c(=O)c(Cc5c(O)ccc6ccccc56)nnc4s3)nn12", "TGI": 84.4}
{"smiles": "Cc1[nH]c(=O)[nH]c(=S)c1C(=O)NC1C2CCCCC2NC2CCCCC21", "note": "(stereo unspecified)", "TGI": 27.6}
{"smiles": "C/C(=C\\COc1cc(O)c2c(c1)C(=O)c1cc(C)cc(O)c1C2=O)CCC1OC1(C)C", "note": "(stereo unspecified)", "TGI": 70.8}
{"system": "UO-31 renal", "assay": "NCI anticancer screen, dose series, 48 h", "units": {"TGI": "µM"}}
{"smiles": "Cc1ccc(O)c(-c2cc(-c3cccc(Br)c3)on2)c1", "TGI": "> 100"}
{"smiles": "ClC(Cl)(Cl)C(N1CCN(c2ccccc2)CC1)N1CCN(c2ccccc2)CC1", "TGI": "> 100"}
{"smiles": "O=c1c(Cc2c(O)ccc3ccccc23)nnc2sc(-c3nn4c(=O)c(Cc5c(O)ccc6ccccc56)nnc4s3)nn12", "TGI": "> 100"}
{"smiles": "Cc1[nH]c(=O)[nH]c(=S)c1C(=O)NC1C2CCCCC2NC2CCCCC21", "note": "(stereo unspecified)", "TGI": 26.7}
{"smiles": "C/C(=C\\COc1cc(O)c2c(c1)C(=O)c1cc(C)cc(O)c1C2=O)CCC1OC1(C)C", "note": "(stereo unspecified)", "TGI": "> 100"}
{"system": "NCI/ADR-RES ovarian", "assay": "NCI anticancer screen, dose series, 48 h", "units": {"TGI": "µM"}}
{"smiles": "Cc1ccc(O)c(-c2cc(-c3cccc(Br)c3)on2)c1", "TGI": "> 100"}
{"smiles": "ClC(Cl)(Cl)C(N1CCN(c2ccccc2)CC1)N1CCN(c2ccccc2)CC1", "TGI": "> 100"}
{"smiles": "O=c1c(Cc2c(O)ccc3ccccc23)nnc2sc(-c3nn4c(=O)c(Cc5c(O)ccc6ccccc56)nnc4s3)nn12", "TGI": "> 100"}
{"smiles": "Cc1[nH]c(=O)[nH]c(=S)c1C(=O)NC1C2CCCCC2NC2CCCCC21", "note": "(stereo unspecified)", "TGI": 40.2}
{"smiles": "C/C(=C\\COc1cc(O)c2c(c1)C(=O)c1cc(C)cc(O)c1C2=O)CCC1OC1(C)C", "note": "(stereo unspecified)", "TGI": "> 100"}
{"system": "K-562 leukemia", "assay": "NCI anticancer screen, dose series, 48 h", "units": {"TGI": "µM"}}
{"smiles": "Cc1ccc(O)c(-c2cc(-c3cccc(Br)c3)on2)c1", "TGI": "> 100"}
{"smiles": "ClC(Cl)(Cl)C(N1CCN(c2ccccc2)CC1)N1CCN(c2ccccc2)CC1", "TGI": "> 100"}
{"smiles": "O=c1c(Cc2c(O)ccc3ccccc23)nnc2sc(-c3nn4c(=O)c(Cc5c(O)ccc6ccccc56)nnc4s3)nn12", "TGI": "> 100"}
{"smiles": "Cc1[nH]c(=O)[nH]c(=S)c1C(=O)NC1C2CCCCC2NC2CCCCC21", "note": "(stereo unspecified)", "TGI": "> 100"}
{"smiles": "C/C(=C\\COc1cc(O)c2c(c1)C(=O)c1cc(C)cc(O)c1C2=O)CCC1OC1(C)C", "note": "(stereo unspecified)", "TGI": "> 100"}
{"system": "NCI-H522 lung", "assay": "NCI anticancer screen, dose series, 48 h", "units": {"TGI": "µM"}}
{"smiles": "ClC(Cl)(Cl)C(N1CCN(c2ccccc2)CC1)N1CCN(c2ccccc2)CC1", "TGI": "> 100"}
{"smiles": "C/C(=C\\COc1cc(O)c2c(c1)C(=O)c1cc(C)cc(O)c1C2=O)CCC1OC1(C)C", "note": "(stereo unspecified)", "TGI": "> 100"}
{"system": "ACHN renal", "assay": "NCI anticancer screen, dose series, 48 h", "units": {"TGI": "µM"}}
{"smiles": "Cc1ccc(O)c(-c2cc(-c3cccc(Br)c3)on2)c1", "TGI": "> 100"}
{"smiles": "ClC(Cl)(Cl)C(N1CCN(c2ccccc2)CC1)N1CCN(c2ccccc2)CC1", "TGI": "> 100"}
{"smiles": "O=c1c(Cc2c(O)ccc3ccccc23)nnc2sc(-c3nn4c(=O)c(Cc5c(O)ccc6ccccc56)nnc4s3)nn12", "TGI": "> 100"}
{"smiles": "C/C(=C\\COc1cc(O)c2c(c1)C(=O)c1cc(C)cc(O)c1C2=O)CCC1OC1(C)C", "note": "(stereo unspecified)", "TGI": "> 100"}
{"system": "UACC-62 melanoma", "assay": "NCI anticancer screen, dose series, 48 h", "units": {"TGI": "µM"}}
{"smiles": "Cc1ccc(O)c(-c2cc(-c3cccc(Br)c3)on2)c1", "TGI": 78.1}
{"smiles": "ClC(Cl)(Cl)C(N1CCN(c2ccccc2)CC1)N1CCN(c2ccccc2)CC1", "TGI": "> 100"}
{"smiles": "O=c1c(Cc2c(O)ccc3ccccc23)nnc2sc(-c3nn4c(=O)c(Cc5c(O)ccc6ccccc56)nnc4s3)nn12", "TGI": "> 100"}
{"smiles": "Cc1[nH]c(=O)[nH]c(=S)c1C(=O)NC1C2CCCCC2NC2CCCCC21", "note": "(stereo unspecified)", "TGI": 16.3}
{"smiles": "C/C(=C\\COc1cc(O)c2c(c1)C(=O)c1cc(C)cc(O)c1C2=O)CCC1OC1(C)C", "note": "(stereo unspecified)", "TGI": "> 100"}
{"system": "RPMI-8226 leukemia", "assay": "NCI anticancer screen, dose series, 48 h", "units": {"TGI": "µM"}}
{"smiles": "Cc1ccc(O)c(-c2cc(-c3cccc(Br)c3)on2)c1", "TGI": 85.2}
{"smiles": "ClC(Cl)(Cl)C(N1CCN(c2ccccc2)CC1)N1CCN(c2ccccc2)CC1", "TGI": "> 100"}
{"smiles": "O=c1c(Cc2c(O)ccc3ccccc23)nnc2sc(-c3nn4c(=O)c(Cc5c(O)ccc6ccccc56)nnc4s3)nn12", "TGI": "> 100"}
{"smiles": "Cc1[nH]c(=O)[nH]c(=S)c1C(=O)NC1C2CCCCC2NC2CCCCC21", "note": "(stereo unspecified)", "TGI": "> 100"}
{"smiles": "C/C(=C\\COc1cc(O)c2c(c1)C(=O)c1cc(C)cc(O)c1C2=O)CCC1OC1(C)C", "note": "(stereo unspecified)", "TGI": "> 100"}
{"system": "OVCAR-3 ovarian", "assay": "NCI anticancer screen, dose series, 48 h", "units": {"TGI": "µM"}}
{"smiles": "Cc1ccc(O)c(-c2cc(-c3cccc(Br)c3)on2)c1", "TGI": 51.7}
{"smiles": "O=c1c(Cc2c(O)ccc3ccccc23)nnc2sc(-c3nn4c(=O)c(Cc5c(O)ccc6ccccc56)nnc4s3)nn12", "TGI": "> 100"}
{"smiles": "Cc1[nH]c(=O)[nH]c(=S)c1C(=O)NC1C2CCCCC2NC2CCCCC21", "note": "(stereo unspecified)", "TGI": 29.5}
{"smiles": "C/C(=C\\COc1cc(O)c2c(c1)C(=O)c1cc(C)cc(O)c1C2=O)CCC1OC1(C)C", "note": "(stereo unspecified)", "TGI": "> 100"}
{"system": "M14 melanoma", "assay": "NCI anticancer screen, dose series, 48 h", "units": {"TGI": "µM"}}
{"smiles": "Cc1ccc(O)c(-c2cc(-c3cccc(Br)c3)on2)c1", "TGI": "> 100"}
{"smiles": "ClC(Cl)(Cl)C(N1CCN(c2ccccc2)CC1)N1CCN(c2ccccc2)CC1", "TGI": "> 100"}
{"smiles": "O=c1c(Cc2c(O)ccc3ccccc23)nnc2sc(-c3nn4c(=O)c(Cc5c(O)ccc6ccccc56)nnc4s3)nn12", "TGI": "> 100"}
{"smiles": "Cc1[nH]c(=O)[nH]c(=S)c1C(=O)NC1C2CCCCC2NC2CCCCC21", "note": "(stereo unspecified)", "TGI": 29.6}
{"smiles": "C/C(=C\\COc1cc(O)c2c(c1)C(=O)c1cc(C)cc(O)c1C2=O)CCC1OC1(C)C", "note": "(stereo unspecified)", "TGI": "> 100"}
{"system": "BT-549 breast", "assay": "NCI anticancer screen, dose series, 48 h", "units": {"TGI": "µM"}}
{"smiles": "Cc1ccc(O)c(-c2cc(-c3cccc(Br)c3)on2)c1", "TGI": 77.5}
{"smiles": "ClC(Cl)(Cl)C(N1CCN(c2ccccc2)CC1)N1CCN(c2ccccc2)CC1", "TGI": "> 100"}
{"smiles": "O=c1c(Cc2c(O)ccc3ccccc23)nnc2sc(-c3nn4c(=O)c(Cc5c(O)ccc6ccccc56)nnc4s3)nn12", "TGI": "> 100"}
{"smiles": "Cc1[nH]c(=O)[nH]c(=S)c1C(=O)NC1C2CCCCC2NC2CCCCC21", "note": "(stereo unspecified)", "TGI": 32.8}
{"smiles": "C/C(=C\\COc1cc(O)c2c(c1)C(=O)c1cc(C)cc(O)c1C2=O)CCC1OC1(C)C", "note": "(stereo unspecified)", "TGI": "> 100"}
{"system": "NCI-H23 lung", "assay": "NCI anticancer screen, dose series, 48 h", "units": {"TGI": "µM"}}
{"smiles": "Cc1ccc(O)c(-c2cc(-c3cccc(Br)c3)on2)c1", "TGI": "> 100"}
{"smiles": "O=c1c(Cc2c(O)ccc3ccccc23)nnc2sc(-c3nn4c(=O)c(Cc5c(O)ccc6ccccc56)nnc4s3)nn12", "TGI": "> 100"}
{"smiles": "Cc1[nH]c(=O)[nH]c(=S)c1C(=O)NC1C2CCCCC2NC2CCCCC21", "note": "(stereo unspecified)", "TGI": 29.8}
{"smiles": "C/C(=C\\COc1cc(O)c2c(c1)C(=O)c1cc(C)cc(O)c1C2=O)CCC1OC1(C)C", "note": "(stereo unspecified)", "TGI": "> 100"}
